The subject of the experiment is 857933-349-R-J2-PDC complex spheroids, viability. Kind of experiment: Anticancer human tumor 857933-349-R-J2-PDC patient-derived colon adenocarcinoma cell line growth inhibition [GQUAD]. To be noted: for viability, T/C: stronger effect = lower value. An excerpt:
DNA G-quadruplex Stabilizer Agents in Combinations in Complex Spheroids
A high-throughput screen of multi-cell type tumor spheroids was designed to identify active combinations of DNA G-quadruplex stabilizer agents and targeted small molecules. Complex spheroids include a stromal component modeled by human endothelial cells (HUVEC) and fibroblasts modeled by human mesenchymal stem cells (MSCs). The concentration ranges selected for each drug and investigational agent were based upon clinically achievable concentrations if the clinical Cmax of the agent was known.
Compounds. The drugs and investigational agents: pidnarulex (CX-5461; NSC782164), APTO-253 (NSC789042), BRACO-19 (NSC847499), peposertib (NSC802822), ceralasertib (NSC780249), elimusertib (NSC800525), camonsertib (NSC841442), AZD-1390 (NSC803789), olaparib (NSC753686), talazoparib (NSC767125), ART-558 (NSC835418), sotorasib (NSC818433), MRTX-1133 (NSC836407), SN-38 (NSC673596), topotecan (NSC609699), etoposide (NSC141540), doxorubicin (NSC123127), gemcitabine (NSC613327), 5-fluorouracil (NSC19893), paclitaxel (NSC125973), vemurafenib (NSC761431), panobinostat (NSC761190), R-306465 (JNJ-16241199; NSC773264), adavosertib (NSC754352), TP-3654 (NSC805149), carboplatin (NSC241240), KSQ-4279 (NSC840948), and staurosporine (NSC755774) were obtained from the National Cancer Institute (NCI) Developmental Therapeutics Program Chemical Repository (34). The FDA-approved anticancer drug set is available from the NCI Developmental Therapeutics Program. […] The stock solutions were prepared in dimethyl sulfoxide (DMSO, Sigma-Aldrich, St. Louis, MO, cat. D2650) at 800-fold the tested concentration and stored at -70 degrees C prior to their use. All drugs and investigational agents were tested over a range starting from a high concentration at or near the clinical Cmax and decreasing in half-log increments. If the clinical Cmax for an agent had not been determined, the highest concentration tested was 10 microM.
2.3 Cell Culture. All cells were maintained in an incubator at 37 degrees C and 5% CO2 with 95% humidity. The PDC lines were cultured according to standard operating procedures established by the NCI PDMR. All PDCs were thawed and cultured in Matrigel-coated flasks prepared with a working solution of 1X Ham's F-12 nutrient mix, without supplementation (Invitrogen, cat. 11765054), 100 U/mL penicillin-streptomycin (Invitrogen, cat. 15140122), and 2.5% Matrigel (Corning Inc., cat. 354248) for the first three passages. The 857933-349-R-J2-PDC line was cultured in 6C/Colon 1B media, which includes advanced DMEM/F-12 (Thermo Fisher Scientific, cat. 12634028), 10 mM HEPES (Thermo Fisher Scientific, cat. 15630080), 1X GlutaMAX supplement (Thermo Fisher Scientific, cat. 35050061), 0.1 mg/mL primocin (InvivoGen, cat. ant-pm-2), 10% defined fetal bovine serum, heat inactivated (HyClone Laboratories Inc., cat. SH30070.03HI), 50% L-WRN conditioned media (ATCC, cat. CRL-3276), 1.25 mM N-Acetyl-L-cysteine (Sigma-Aldrich, cat. A9165), 10 mM nicotinamide (Sigma-Aldrich, cat. N0636), 1X B-27 supplement (Thermo Fisher Scientific, cat. 17504044), 1X N-2 supplement (Thermo Fisher Scientific, cat. 17502048), 10 microM Y-27632 dihydrochloride (Tocris Bioscience, cat. 1254), and 50 ng/mL human EGF recombinant protein (Thermo Fisher Scientific, cat. PHG0311). The 485176-168-R4-J1-PDC line was cultured in Panc media, which includes all 6C/Colon 1B media components plus 100 ng/mL human FGF-10 (Thermo Fisher Scientific, cat. 100-26), 500 nM SB-431542 (Selleckchem, cat. S1067), and gastrin (Tocris, cat. 3006).
[…]

“And” between values parts separate entries of the source, which are not always exact repeats. Equal entries are not always repeated.

This is an account of results in PubChem BioAssay AID2060491 (Molecular Pharmacology Branch, DTP, NCI, 2025).

As usually defined, the viability, T/C is the result in the treated group divided by that in the control group, in per cent. The term IC50 denotes the concentration that gives 50% inhibition.
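Note: spheroids exposed to compounds for one week before readout.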
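Throughout, for viability, T/C: percent viability relative to vehicle DMSO wells taken as 100%.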

As for `C#Cc1c(F)ccc2cc(O)cc(-c3ncc4c(N5CC6CCC(C5)N6)nc(OCC56CCCN5CC(F)C6)nc4c3F)c12` (centres undefined), the viability, T/C runs as follows: (compound 0.0316 µM) 94.6% and 101% and 111%; (compound 0.1 µM) 93.3% and 94.7% and 99.7%; (compound 0.316 µM) 93.6% and 91.5% and 99.1%; (compound 1 µM) 69.2% and 83.1% and 96.8%; (compound 3.16 µM) 75.5% and 70.2% and 97.1%; (compound 10 µM) 70% and 66.5% and 97.9%. Further, under “curve of compound”, the concentration for half-maximal inhibition (IC50) was greater than 10000 nM.
Take `C=CCn1c(=O)c2cnc(Nc3ccc(N4CCN(C)CC4)cc3)nc2n1-c1cccc(C(C)(C)O)n1`: the viability, T/C by setting is: (compound 0.0316 µM) 102% and 105% and 106%; (compound 0.1 µM) 99.4% and 100% and 96.3%; (compound 0.316 µM) 95.1% and 97.1% and 97.4%; (compound 1 µM) 66.4% and 72.8% and 47.7%; (compound 3.16 µM) 26.8% and 27.4% and 8.15%; (compound 10 µM) 28.5% and 27% and 10.6%. Besides, the IC50 (curve of compound) is 1640 nM and 1800 nM and 945 nM.
As for `CC(C)(O)C1CCC(Nc2ccc3ncc(-c4cccc(C(F)(F)F)c4)n3n2)CC1` (centres undefined), the viability, T/C by setting is: (compound 0.0316 µM) 106% and 103% and 98.1%; (compound 0.1 µM) 94% and 102% and 87.3%; (compound 0.316 µM) 89% and 96.2% and 80.1%; (compound 1 µM) 36.2% and 39.3% and 10.5%; (compound 3.16 µM) 2.72% and 3.1% and 0.35%; (compound 10 µM) 2.99% and 3.23% and 0.57%. Further, the concentration for half-maximal inhibition (IC50) (curve of compound) is 734 nM and 803 nM and 519 nM.
Regarding `CCCS(=O)(=O)Nc1ccc(F)c(C(=O)c2c[nH]c3ncc(-c4ccc(Cl)cc4)cc23)c1F`, the viability, T/C is 104% and 111% and 98.5% (compound 0.0316 µM); 97.2% and 102% and 92% (compound 0.1 µM); 97.4% and 105% and 95.5% (compound 0.316 µM); 102% and 101% and 96.5% (compound 1 µM); 84.9% and 90.6% and 95.8% (compound 3.16 µM); 4.82% and 5.71% and 6.52% (compound 10 µM). The concentration for half-maximal inhibition (IC50) (curve of compound) was 5230 nM and 5490 nM and 5700 nM.
In the case of `COc1ncnc(C2CC2)c1-c1ncc2cnn(Cc3ccc(-c4nc(C(F)(F)F)cn4C(C)C)cc3)c2n1`, the viability, T/C by setting is: (compound 0.0316 µM) 101% and 105% and 104%; (compound 0.1 µM) 92.3% and 102% and 96%; (compound 0.316 µM) 101% and 105% and 104%; (compound 1 µM) 93.7% and 103% and 102%; (compound 3.16 µM) 104% and 99.2% and 97.6%; (compound 10 µM) 102% and 105% and 103%. Also, the half-inhibitory concentration (IC50) (curve of compound) was greater than 10000 nM.
With `O=C(NO)c1cnc(N2CCN(S(=O)(=O)c3ccc4ccccc4c3)CC2)nc1`, the viability, T/C was 112% and 103% and 107% (compound 0.0316 µM); 105% and 103% and 92.6% (compound 0.1 µM); 104% and 103% and 82.3% (compound 0.316 µM); 75.6% and 75% and 19.8% (compound 1 µM); 0.92% and 0.99% and 0.08% (compound 3.16 µM); 0.38% and 0.52% and 0.08% (compound 10 µM). Also, the IC50 (curve of compound) is 1490 nM and 1480 nM and 570 nM.
For the molecule `Cn1ncnc1[C@H]1c2n[nH]c(=O)c3cc(F)cc(c23)N[C@@H]1c1ccc(F)cc1` + CN(C)c1ccc(Nc2c3ccc(NC(=O)CCN4CCCC4)cc3nc3cc(NC(=O)CCN4CCCC4)ccc23)cc1, the half-maximal inhibitory concentration (IC50) runs as follows: (curve of first compound, second compound 0.0316 µM) greater than 316 nM; (curve of first compound, second compound 0.1 µM) greater than 316 nM; (curve of first compound, second compound 0.316 µM) greater than 316 nM; (curve of first compound, second compound 1 µM) greater than 316 nM; (curve of first compound, second compound 3.16 µM) greater than 316 nM; (curve of first compound, second compound 10 µM) greater than 316 nM. The viability, T/C (second compound 0.0316 µM, first compound 0.000999 µM) was 108%; the viability, T/C (second compound 0.0316 µM, first compound 0.00316 µM) was 97.2%; the viability, T/C (second compound 0.0316 µM, first compound 0.00999 µM) was 99.4%; the viability, T/C (second compound 0.0316 µM, first compound 0.0316 µM) was 106%; the viability, T/C (second compound 0.0316 µM, first compound 0.0999 µM) was 109%; the viability, T/C (second compound 0.0316 µM, first compound 0.316 µM) was 102%. The viability, T/C runs as follows: (second compound 0.1 µM, first compound 0.000999 µM) 102%; (second compound 0.1 µM, first compound 0.00316 µM) 99.9%; (second compound 0.1 µM, first compound 0.00999 µM) 98.6%; (second compound 0.1 µM, first compound 0.0316 µM) 105%; (second compound 0.1 µM, first compound 0.0999 µM) 104%; (second compound 0.1 µM, first compound 0.316 µM) 101%. In addition, the viability, T/C reads like this: (second compound 0.316 µM, first compound 0.000999 µM) 106%; (second compound 0.316 µM, first compound 0.00316 µM) 100%; (second compound 0.316 µM, first compound 0.00999 µM) 98.8%; (second compound 0.316 µM, first compound 0.0316 µM) 97.7%; (second compound 0.316 µM, first compound 0.0999 µM) 105%; (second compound 0.316 µM, first compound 0.316 µM) 99.7%. Moreover, the viability, T/C (second compound 1 µM, first compound 0.000999 µM) was 102%; the viability, T/C (second compound 1 µM, first compound 0.00316 µM) is 92%; the viability, T/C (second compound 1 µM, first compound 0.00999 µM) is 96.4%; the viability, T/C (second compound 1 µM, first compound 0.0316 µM) is 96%; the viability, T/C (second compound 1 µM, first compound 0.0999 µM) is 101%; the viability, T/C (second compound 1 µM, first compound 0.316 µM) is 94.6%. Further, the viability, T/C is, setting by setting: (second compound 3.16 µM, first compound 0.000999 µM) 90.1%; (second compound 3.16 µM, first compound 0.00316 µM) 81.3%; (second compound 3.16 µM, first compound 0.00999 µM) 84.3%; (second compound 3.16 µM, first compound 0.0316 µM) 85.8%; (second compound 3.16 µM, first compound 0.0999 µM) 90%; (second compound 3.16 µM, first compound 0.316 µM) 86.5%. The viability, T/C was 71.2% (second compound 10 µM, first compound 0.000999 µM); 77% (second compound 10 µM, first compound 0.00316 µM); 70.8% (second compound 10 µM, first compound 0.00999 µM); 77.5% (second compound 10 µM, first compound 0.0316 µM); 75.4% (second compound 10 µM, first compound 0.0999 µM); 71.7% (second compound 10 µM, first compound 0.316 µM).
